# According to US10300042B2, “Apremilast for the treatment of a liver disease or a liver function abnormality” (Celgene Corporation, priority 2014, dated 2019):
# What was measured:
# [1] = test system: Aspartate Aminotransferase; assay: AST levels in PALACE 1, 2, and 3 clinical studies; assay type: in vivo, human
# From the text: Apremilast was studied in Phase 3 trials in both psoriatic arthritis and psoriasis patient populations and a Phase 2 trial in rheumatoid arthritis patients on background methotrexate. […] The improvement in mild baseline liver function test abnormalities has been observed with apremilast daily use without any prescribed changes in physical activity, social or dietary habits. The majority of the patient populations in both the psoriatic arthritis and psoriasis studies were overweight with the mean BMI for subjects greater than or equal to 30, more than half were consuming alcoholic beverages regularly, approximately 60% were taking methotrexate at an average dose of […], and 70% were using non-steroidal anti-inflammatory drugs (NSAIDs). […] During the course of the study, there was observed a higher proportion of subjects in the apremilast treatment groups (both 20 mg BID and 30 mg BID) with normal LFTs (i.e. normal levels of ALT and AST) at subsequent placebo-controlled study visits at week 4, week 16, and week 24 (See Tables 1 to 10 from PALACE 1, 2, and 3 studies).
# Alanine Aminotransferase = assay: ALT levels in RA-002 (rheumatoid arthritis); assay type: in vivo, human; settings: for ALT High to Normal, percent of patients / ALT Net Benefit / ALT Normal to High, percent of patients: end of treatment (week 16)
# Protocol: The improvement in mild baseline liver function test abnormalities has been observed with apremilast daily use without any prescribed changes in physical activity, social or dietary habits. During the course of the study, there was observed a higher proportion of subjects in the 30 mg BID apremilast treatment group with normal LFTs at subsequent placebo-controlled study visits at week 16. See Tables 17 to 24 from RA-002 studies.
# [2] = Baseline High, Week 24, 20 mg BID
# [3] = Baseline High, Week 24, 30 mg BID
# [4] = Baseline Normal, Week 24, 20 mg BID
# [5] = Baseline Normal, Week 24, 30 mg BID
# [6] = Baseline Total, Week 24, 20 mg BID
# [7] = Baseline Total, Week 24, 30 mg BID
# [8] = Baseline High, Week 16, 20 mg BID
smiles,measurement,setting,value
"CCOc1cc([C@@H](CS(C)(=O)=O)N2C(=O)c3cccc(NC(C)=O)c3C2=O)ccc1OC [Apremilast, (+)-2-[1-(3-ethoxy-4-methoxyphenyl)-2-methylsulfonylethyl]-4-acetylaminoisoindoline-1,3-dione]","AST High to Normal, percent of patients","[1]; 20 BID, end of treatment",60.9%
same,AST Net Benefit,"[1]; 20 BID, end of treatment",32.6%
same,"AST Normal to High, percent of patients","[1]; 20 BID, end of treatment",5.0%
same,"AST High to Normal, Difference between Placebo and APR 30 BID","[1]; 30 BID, end of treatment",13.3%
same,"AST High to Normal, percent of patients","[1]; 30 BID, end of treatment",73.3%
same,AST Net Benefit,"[1]; 30 BID, end of treatment",48.9%
same,"AST Net Benefit, Difference between Placebo and APR 30 BID","[1]; 30 BID, end of treatment",23.9%
same,"AST Normal to High, Difference between Placebo and APR 30 BID","[1]; 30 BID, end of treatment",−6.4%
same,"AST Normal to High, percent of patients","[1]; 30 BID, end of treatment",3.8%
same,"AST High, % of patients",[1]; [2],39.1%
same,"AST Low, % of patients",[1]; [2],0.0%
same,"AST Normal, % of patients",[1]; [2],60.9%
same,"AST High, % of patients",[1]; [3],26.7%
same,"AST Low, % of patients",[1]; [3],0.0%
same,"AST Normal, % of patients",[1]; [3],73.3%
same,"AST High, % of patients",[1]; [4],5.0%
same,"AST Low, % of patients",[1]; [4],0.0%
same,"AST Normal, % of patients",[1]; [4],95.0%
same,"AST High, % of patients",[1]; [5],3.8%
same,"AST Low, % of patients",[1]; [5],0.0%
same,"AST Normal, % of patients",[1]; [5],96.2%
same,"AST High, % of patients",[1]; [6],6.8%
same,"AST Low, % of patients",[1]; [6],0.0%
same,"AST Normal, % of patients",[1]; [6],93.2%
same,"AST High, % of patients",[1]; [7],5.4%
same,"AST Low, % of patients",[1]; [7],0.0%
same,"AST Normal, % of patients",[1]; [7],94.6%
same,Baseline High AST: High %,"[1]; Week 4, 20 mg BID",38.6%
same,Baseline High AST: Normal %,"[1]; Week 4, 20 mg BID",61.4%
same,Baseline High AST: Normal % difference from Placebo,"[1]; Week 4, 20 mg BID",9%
same,Baseline High AST: High %,"[1]; Week 4, 30 mg BID",42.2%
same,Baseline High AST: Normal %,"[1]; Week 4, 30 mg BID",57.8%
same,Baseline High AST: Normal % difference from Placebo,"[1]; Week 4, 30 mg BID",5.4%
same,Baseline High AST: High %,"[1]; Week 16, 20 mg BID",38.5%
same,Baseline High AST: Normal %,"[1]; Week 16, 20 mg BID",61.5%
same,Baseline High AST: Normal % difference from Placebo,"[1]; Week 16, 20 mg BID",−4.3%
same,decrease in the number of patients with normal levels of AST compared to the placebo group,"[1]; Week 16, 20 mg BID, stated as a decrease",4.3%
same,Baseline High AST: High %,"[1]; Week 16, 30 mg BID",25.0%
same,Baseline High AST: Normal %,"[1]; Week 16, 30 mg BID",75.0%
same,Baseline High AST: Normal % difference from Placebo,"[1]; Week 16, 30 mg BID",9.2%
same,Baseline High AST: High %,"[1]; Week 24, 20 mg BID",44.4%
same,Baseline High AST: Normal %,"[1]; Week 24, 20 mg BID",55.6%
same,Baseline High AST: Normal % difference from Placebo,"[1]; Week 24, 20 mg BID",5.6%
same,Baseline High AST: High %,"[1]; Week 24, 30 mg BID",24.2%
same,Baseline High AST: Normal %,"[1]; Week 24, 30 mg BID",75.8%
same,Baseline High AST: Normal % difference from Placebo,"[1]; Week 24, 30 mg BID",25.8%
same,"ALT High to Normal, percent of patients",Alanine Aminotransferase; 20 BID,25.0%
same,ALT Net Benefit,Alanine Aminotransferase; 20 BID,14.3%
same,"ALT Normal to High, percent of patients",Alanine Aminotransferase; 20 BID,4.5%
same,"ALT High to Normal, percent of patients",Alanine Aminotransferase; 30 BID,66.7%
same,ALT Net Benefit,Alanine Aminotransferase; 30 BID,40.0%
same,"ALT Normal to High, percent of patients",Alanine Aminotransferase; 30 BID,3.1%
same,"ALT High to Normal, Difference between Placebo and APR 30 BID","Alanine Aminotransferase; 30 BID, week 16",0%
same,"ALT Net Benefit, Difference between Placebo and APR 30 BID","Alanine Aminotransferase; 30 BID, week 16",−26.7%
same,"ALT Normal to High, Difference between Placebo and APR 30 BID","Alanine Aminotransferase; 30 BID, week 16",3.1%
same,"ALT High to Normal, Difference between Placebo and APR 30 BID","Alanine Aminotransferase; 30 BID, week 16, listed as APR",0.0%
same,"ALT High, % of patients",Alanine Aminotransferase; [8],75.0%
same,"ALT Low, % of patients",Alanine Aminotransferase; [8],0.0%
